In ChEMBL document CHEMBL5620350, “Recent advances in the development of dual ALK/ROS1 inhibitors for non-small cell lung cancer therapy” (Eur J Med Chem, 2023):
Blank lines part the entries; values can stand above or below the molecule they belong to.

Assays:
[1] = target: T1, ALK tyrosine kinase receptor (Homo sapiens, UniProt Q9UM73); test: Inhibition of wild type ALK (unknown origin) expressed in BaF3 cells incubated for 4 hrs; format: cell-based
[2] = target: T2, Proto-oncogene tyrosine-protein kinase ROS (Homo sapiens, UniProt P08922); test: Inhibition of wild type ROS1 (unknown origin) expressed in BaF3 cells incubated for 4 hrs; format: cell-based
T2 sequence (P08922 whole entry): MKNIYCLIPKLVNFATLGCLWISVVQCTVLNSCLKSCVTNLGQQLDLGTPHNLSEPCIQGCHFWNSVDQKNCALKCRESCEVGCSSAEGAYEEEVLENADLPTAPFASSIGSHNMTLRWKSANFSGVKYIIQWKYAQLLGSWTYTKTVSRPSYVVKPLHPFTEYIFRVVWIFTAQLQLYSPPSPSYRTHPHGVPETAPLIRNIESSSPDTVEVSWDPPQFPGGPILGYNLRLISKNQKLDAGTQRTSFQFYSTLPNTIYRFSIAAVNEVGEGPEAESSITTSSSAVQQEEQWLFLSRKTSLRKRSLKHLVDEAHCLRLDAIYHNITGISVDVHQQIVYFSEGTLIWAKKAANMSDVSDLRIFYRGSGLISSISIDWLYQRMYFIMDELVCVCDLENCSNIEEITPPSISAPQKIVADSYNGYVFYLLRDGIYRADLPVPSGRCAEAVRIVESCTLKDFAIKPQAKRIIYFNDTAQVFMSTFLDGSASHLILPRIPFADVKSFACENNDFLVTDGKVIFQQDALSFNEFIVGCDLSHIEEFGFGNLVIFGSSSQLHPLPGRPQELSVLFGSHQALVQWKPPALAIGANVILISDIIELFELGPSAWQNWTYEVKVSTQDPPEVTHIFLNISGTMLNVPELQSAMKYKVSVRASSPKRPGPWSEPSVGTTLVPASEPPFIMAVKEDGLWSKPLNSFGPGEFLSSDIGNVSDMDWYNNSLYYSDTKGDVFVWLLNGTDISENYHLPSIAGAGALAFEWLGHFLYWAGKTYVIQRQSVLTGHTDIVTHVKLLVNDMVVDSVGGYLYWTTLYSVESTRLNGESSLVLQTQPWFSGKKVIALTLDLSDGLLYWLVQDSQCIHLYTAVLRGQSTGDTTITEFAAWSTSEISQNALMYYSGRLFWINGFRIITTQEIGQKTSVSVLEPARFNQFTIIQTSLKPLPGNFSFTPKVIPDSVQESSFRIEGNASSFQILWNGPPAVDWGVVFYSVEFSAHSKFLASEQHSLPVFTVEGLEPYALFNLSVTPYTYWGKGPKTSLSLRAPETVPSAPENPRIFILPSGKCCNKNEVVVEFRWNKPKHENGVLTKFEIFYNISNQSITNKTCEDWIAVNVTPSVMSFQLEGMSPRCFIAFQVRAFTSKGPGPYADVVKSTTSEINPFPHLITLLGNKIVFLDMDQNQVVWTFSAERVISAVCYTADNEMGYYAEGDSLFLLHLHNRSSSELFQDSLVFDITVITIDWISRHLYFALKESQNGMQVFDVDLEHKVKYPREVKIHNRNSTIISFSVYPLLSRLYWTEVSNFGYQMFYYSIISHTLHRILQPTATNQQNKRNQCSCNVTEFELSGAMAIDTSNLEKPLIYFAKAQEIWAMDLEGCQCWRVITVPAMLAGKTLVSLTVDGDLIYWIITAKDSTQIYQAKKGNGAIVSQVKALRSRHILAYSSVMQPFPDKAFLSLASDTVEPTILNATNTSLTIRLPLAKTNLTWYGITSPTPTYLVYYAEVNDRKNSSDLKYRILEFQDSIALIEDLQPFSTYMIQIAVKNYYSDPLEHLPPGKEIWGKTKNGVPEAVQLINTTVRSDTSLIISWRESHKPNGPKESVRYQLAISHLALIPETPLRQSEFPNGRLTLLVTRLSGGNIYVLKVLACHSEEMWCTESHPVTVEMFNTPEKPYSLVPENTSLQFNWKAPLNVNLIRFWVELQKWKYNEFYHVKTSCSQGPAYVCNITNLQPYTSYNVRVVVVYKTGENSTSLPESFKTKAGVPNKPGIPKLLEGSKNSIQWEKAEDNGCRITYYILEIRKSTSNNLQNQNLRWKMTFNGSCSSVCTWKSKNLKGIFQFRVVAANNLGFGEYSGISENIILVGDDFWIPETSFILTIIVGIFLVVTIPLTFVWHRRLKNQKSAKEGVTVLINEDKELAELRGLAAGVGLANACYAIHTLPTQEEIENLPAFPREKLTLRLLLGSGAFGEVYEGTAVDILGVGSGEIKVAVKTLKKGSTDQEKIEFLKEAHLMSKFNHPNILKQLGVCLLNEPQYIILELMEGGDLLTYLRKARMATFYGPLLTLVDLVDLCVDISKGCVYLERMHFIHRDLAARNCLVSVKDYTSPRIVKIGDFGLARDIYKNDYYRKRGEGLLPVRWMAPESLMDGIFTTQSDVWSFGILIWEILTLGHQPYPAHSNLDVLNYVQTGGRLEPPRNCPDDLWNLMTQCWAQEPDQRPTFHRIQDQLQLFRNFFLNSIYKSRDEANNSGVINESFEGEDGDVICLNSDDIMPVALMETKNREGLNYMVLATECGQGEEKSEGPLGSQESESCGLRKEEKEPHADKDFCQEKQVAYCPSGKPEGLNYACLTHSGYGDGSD

[3] = target: T2, Proto-oncogene tyrosine-protein kinase ROS; test: Inhibition of ROS1 (unknown origin) incubated for 1 hr by HTRF assay
[4] = target: T1, ALK tyrosine kinase receptor; test: Inhibition of ALK (unknown origin) incubated for 1 hr by HTRF assay
[5] = Inhibition of human […] G1202R mutant using Casein as substrate incubated for 120 mins in presence of [gamma-33P]-ATP
[6] = target: T2, Proto-oncogene tyrosine-protein kinase ROS; test: Inhibition of human ROS1 using KKKSPGEYVNIEFG as substrate incubated for 120 mins in presence of [gamma-33P]-ATP
[7] = target: T3, Proto-oncogene tyrosine-protein kinase ROS (Homo sapiens, UniProt P08922, G2032R); test: Inhibition of human ROS1 G2032R mutant using KKKSPGEYVNIEFG as substrate incubated for 120 mins in presence of [gamma-33P]-ATP
T3 sequence (P08922 28-2347 G2032R limits assumed): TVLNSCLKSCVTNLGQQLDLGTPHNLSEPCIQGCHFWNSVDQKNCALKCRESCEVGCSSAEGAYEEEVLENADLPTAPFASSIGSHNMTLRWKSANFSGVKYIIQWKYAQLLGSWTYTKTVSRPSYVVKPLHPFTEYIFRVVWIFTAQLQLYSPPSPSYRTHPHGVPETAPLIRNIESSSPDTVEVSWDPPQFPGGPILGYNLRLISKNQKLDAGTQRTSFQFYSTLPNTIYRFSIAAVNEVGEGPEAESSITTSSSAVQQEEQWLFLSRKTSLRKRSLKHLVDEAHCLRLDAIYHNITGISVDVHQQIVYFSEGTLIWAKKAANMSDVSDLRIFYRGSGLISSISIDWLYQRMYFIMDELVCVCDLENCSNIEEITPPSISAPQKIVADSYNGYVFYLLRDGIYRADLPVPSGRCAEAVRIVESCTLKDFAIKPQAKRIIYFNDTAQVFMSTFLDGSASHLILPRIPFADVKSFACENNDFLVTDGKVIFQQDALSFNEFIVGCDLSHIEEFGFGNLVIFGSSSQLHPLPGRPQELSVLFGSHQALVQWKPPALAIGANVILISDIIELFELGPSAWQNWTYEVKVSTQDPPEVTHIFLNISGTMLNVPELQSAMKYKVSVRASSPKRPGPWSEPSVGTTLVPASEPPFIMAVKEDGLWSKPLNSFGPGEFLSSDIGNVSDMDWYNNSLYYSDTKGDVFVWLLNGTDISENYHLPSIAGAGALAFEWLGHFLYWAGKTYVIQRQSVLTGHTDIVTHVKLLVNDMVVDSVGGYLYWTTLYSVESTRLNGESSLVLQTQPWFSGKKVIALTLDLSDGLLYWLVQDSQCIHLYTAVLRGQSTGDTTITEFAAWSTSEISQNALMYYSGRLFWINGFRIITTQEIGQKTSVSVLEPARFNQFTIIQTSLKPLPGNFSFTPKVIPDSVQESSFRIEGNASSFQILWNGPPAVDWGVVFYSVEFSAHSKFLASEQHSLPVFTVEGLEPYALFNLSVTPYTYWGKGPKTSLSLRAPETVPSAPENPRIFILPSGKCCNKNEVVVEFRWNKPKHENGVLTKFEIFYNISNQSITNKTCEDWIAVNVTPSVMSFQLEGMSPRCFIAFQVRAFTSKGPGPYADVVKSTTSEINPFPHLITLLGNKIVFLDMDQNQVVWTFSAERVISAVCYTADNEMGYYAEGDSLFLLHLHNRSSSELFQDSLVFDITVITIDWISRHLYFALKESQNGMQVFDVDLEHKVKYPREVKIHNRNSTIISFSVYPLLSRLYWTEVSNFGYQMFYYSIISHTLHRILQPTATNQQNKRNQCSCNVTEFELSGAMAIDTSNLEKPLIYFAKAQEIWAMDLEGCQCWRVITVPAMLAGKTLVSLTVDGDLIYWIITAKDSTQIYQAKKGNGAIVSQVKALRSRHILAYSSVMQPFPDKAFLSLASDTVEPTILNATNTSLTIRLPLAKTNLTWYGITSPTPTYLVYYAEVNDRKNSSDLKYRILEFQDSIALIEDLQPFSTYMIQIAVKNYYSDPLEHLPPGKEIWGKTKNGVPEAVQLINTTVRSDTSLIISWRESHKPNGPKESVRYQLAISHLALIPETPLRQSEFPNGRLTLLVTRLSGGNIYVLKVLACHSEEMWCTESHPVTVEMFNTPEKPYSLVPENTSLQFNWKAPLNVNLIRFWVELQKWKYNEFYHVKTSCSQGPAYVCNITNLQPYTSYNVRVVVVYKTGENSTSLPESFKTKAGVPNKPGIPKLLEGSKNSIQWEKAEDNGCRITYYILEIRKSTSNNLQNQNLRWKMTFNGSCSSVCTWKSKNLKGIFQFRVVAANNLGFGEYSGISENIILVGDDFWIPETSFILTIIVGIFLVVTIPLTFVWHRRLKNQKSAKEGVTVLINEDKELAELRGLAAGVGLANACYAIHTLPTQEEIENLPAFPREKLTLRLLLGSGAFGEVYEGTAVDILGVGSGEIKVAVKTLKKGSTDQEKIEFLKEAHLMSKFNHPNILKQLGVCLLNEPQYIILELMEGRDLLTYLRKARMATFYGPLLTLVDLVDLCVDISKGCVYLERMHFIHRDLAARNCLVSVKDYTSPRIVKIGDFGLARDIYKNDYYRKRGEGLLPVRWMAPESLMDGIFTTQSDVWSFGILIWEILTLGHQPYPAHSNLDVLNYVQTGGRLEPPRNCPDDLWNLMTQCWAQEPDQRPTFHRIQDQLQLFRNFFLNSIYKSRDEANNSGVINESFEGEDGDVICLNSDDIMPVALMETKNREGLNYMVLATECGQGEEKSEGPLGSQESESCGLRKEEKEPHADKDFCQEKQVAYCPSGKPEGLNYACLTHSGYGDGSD

TGF-beta receptor type-1 = target: T4, TGF-beta receptor type-1 (Homo sapiens, UniProt P36897); test: Inhibition of human […] using Casein as substrate incubated for 120 mins in presence of [gamma-33P]-ATP
T4 sequence (P36897 whole entry): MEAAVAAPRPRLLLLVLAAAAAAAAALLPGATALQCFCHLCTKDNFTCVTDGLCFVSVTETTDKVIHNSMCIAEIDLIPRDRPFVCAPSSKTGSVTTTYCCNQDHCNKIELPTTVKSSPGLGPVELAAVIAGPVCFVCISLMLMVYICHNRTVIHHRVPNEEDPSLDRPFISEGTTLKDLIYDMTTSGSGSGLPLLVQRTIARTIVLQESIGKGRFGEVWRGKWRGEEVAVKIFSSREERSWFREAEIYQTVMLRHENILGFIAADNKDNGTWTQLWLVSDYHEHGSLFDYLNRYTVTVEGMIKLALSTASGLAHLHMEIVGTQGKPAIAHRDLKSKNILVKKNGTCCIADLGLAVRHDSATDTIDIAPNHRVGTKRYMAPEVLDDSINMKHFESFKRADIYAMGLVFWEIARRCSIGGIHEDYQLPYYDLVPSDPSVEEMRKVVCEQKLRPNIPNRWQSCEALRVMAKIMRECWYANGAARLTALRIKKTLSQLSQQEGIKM

[8] = target: T1, ALK tyrosine kinase receptor; test: Inhibition of human ALK preincubated for 5 to 10 mins followed by substrate and ATP addition and measured after 60 mins by TR-FRET assay
[9] = target: T2, Proto-oncogene tyrosine-protein kinase ROS; test: Inhibition of recombinant human ROS1 preincubated for 5 to 10 mins followed by substrate and ATP addition and measured after 60 mins by TR-FRET assay
[10] = target: ALK tyrosine kinase receptor (Homo sapiens, UniProt Q9UM73, G1202R/L1196M); test: Inhibition of human ALK L1196M/G1202R double mutant preincubated for 5 to 10 mins followed by substrate and ATP addition and measured after 60 mins by TR-FRET assay
[11] = target: T3, Proto-oncogene tyrosine-protein kinase ROS; test: Inhibition of recombinant human ROS1 G2032R mutant preincubated for 5 to 10 mins followed by substrate and ATP addition and measured after 60 mins by TR-FRET assay
BaF3 [12] = test: Antitumor activity against mouse BaF3 cells harboring wild type ROS1 assessed as tumor growth inhibition at 2.2 nM; format: functional; design: scale not given: the % may be the effect or the level left
BaF3 [13] = test: Antitumor activity against mouse BaF3 cells harboring EML4 ALK V1 G1202R mutant assessed as tumor growth inhibition at 2.2 nM; format: functional; design: scale not given: the % may be the effect or the level left
BaF3 [14] = test: Antitumor activity against mouse BaF3 cells harboring ROS1 G2032 mutant assessed as tumor growth inhibition at 2.2 nM; format: functional; design: scale not given: the % may be the effect or the level left
[15] = target: T1, ALK tyrosine kinase receptor; test: Inhibition of wild-type ALK (unknown origin)
HCC78 = test: Cytotoxicity against human HCC78 cells incubated for 72 hrs by MTT assay; format: functional, cell-based
NCI-H2228 = test: Cytotoxicity against human NCI-H2228 cells incubated for 72 hrs by MTT assay; format: functional, cell-based; settings: NCI-H2228, 72 h

SMILES: CCOc1ccc(F)cc1[C@@H](C)Nc1ccn2ncc(C3=NOC(C)N3)c2n1 (some centres not stated)
IC50 [5]: < 50 nM
IC50 [6]: < 0.5 nM
IC50 [7]: < 0.5 nM
IC50 (TGF-beta receptor type-1): < 50 nM

SMILES: C[C@H]1Nc2ccn3ncc(c3n2)C(=O)N[C@@]2(C)CC3=CC(F)=CC1C3O2 (some centres not stated)
IC50 [8]: 2.02 nM
IC50 [9]: 0.84 nM
IC50 [10]: 20.7 nM
IC50 [11]: 0.34 nM

SMILES: CC(C)Oc1ccc(F)cc1[C@@H](C)Nc1ccn2ncc(C3=NOC(C)N3)c2n1 (some centres not stated)
IC50 [5]: < 50 nM
IC50 [6]: < 0.5 nM
IC50 [7]: < 0.5 nM
IC50 (TGF-beta receptor type-1): < 50 nM

SMILES: C[C@H]1CNC(=O)c2cnn3ccc(nc23)N[C@H](C)c2cc(F)ccc2O1 [REPOTRECTINIB]
Activity (BaF3 [12]): 197%
Activity (BaF3 [13]): 99%
Activity (BaF3 [14]): 99%

SMILES: COc1ccc(F)cc1[C@@H](C)Nc1ccn2ncc(C3=NOC(C)(C)N3)c2n1
IC50 [5]: < 50 nM
IC50 [6]: < 0.5 nM
IC50 [7]: < 0.5 nM
IC50 (TGF-beta receptor type-1): < 50 nM

SMILES: COc1ccc(CNC(=O)Cn2nc(-c3ccccc3)c3cnc4ccccc4c32)cc1
IC50 (HCC78; Homo sapiens, HCC78, 72 h): 1620 nM
IC50 (HCC78; hcc78): 1610 nM
IC50 (NCI-H2228): 2710 nM

The remaining lines, values ahead:

IC50 [1]: 2 nM
IC50 [2]: 2 nM
SMILES: C[C@H]1Nc2ccn3ncc(c3n2)C(=O)NC[C@@H](CF)Oc2ccc(F)cc21

IC50 [3]: 3.6 nM
IC50 [4]: 1.8 nM
SMILES: COc1cc(-n2cccc2CN2CCN(C)CC2)ccc1Nc1ncc(Cl)c(Nc2ccccc2NS(C)(=O)=O)n1

IC50 [15]: 0.6 nM
SMILES: O=C(Nc1n[nH]c2ncc(S(=O)(=O)c3cccc(F)c3)cc12)c1ccc(N2CCOCC2)cc1
